# Test results from patent US20090093460A1, “Compositions” (AstraZeneca AB, priority 2003, published 2009).
# Read-outs that look alike come from different tables or passages of the source.
# Tests used:
# D2 receptors = biological target: T1, D2 receptors (Homo sapiens, UniProt P14416); parameters: species or system primate; details: in vivo
# T1 construct: from tissue; host or cells: brain of living primate subjects (PET)
# Adrenergic α1D = biological target: T2, Adrenergic α1D (Homo sapiens, UniProt P25100); assay: Radioligand binding 203400 Adrenergic α1D
# T2 construct: host or cells: HEK-293 cells
# T2 sequence (P25100 1-572): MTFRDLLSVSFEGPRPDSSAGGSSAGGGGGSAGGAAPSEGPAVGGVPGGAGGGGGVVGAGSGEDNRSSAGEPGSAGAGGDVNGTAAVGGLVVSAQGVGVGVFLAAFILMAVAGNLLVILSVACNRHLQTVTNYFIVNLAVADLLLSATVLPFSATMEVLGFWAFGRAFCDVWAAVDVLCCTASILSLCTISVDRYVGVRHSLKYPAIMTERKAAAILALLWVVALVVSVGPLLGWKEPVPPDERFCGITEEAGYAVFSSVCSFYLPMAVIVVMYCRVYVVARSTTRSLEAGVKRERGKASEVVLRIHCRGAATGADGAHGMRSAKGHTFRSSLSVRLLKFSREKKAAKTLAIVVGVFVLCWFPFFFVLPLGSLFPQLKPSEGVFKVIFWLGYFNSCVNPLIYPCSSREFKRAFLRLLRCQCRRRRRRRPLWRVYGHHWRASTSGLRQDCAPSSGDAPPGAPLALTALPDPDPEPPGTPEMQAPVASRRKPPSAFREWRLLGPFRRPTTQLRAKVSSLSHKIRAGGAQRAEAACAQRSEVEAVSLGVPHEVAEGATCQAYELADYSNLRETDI
# Description: (§1) Receptor binding methods, (α-adrenergic subtype specific, are provided below.
# Adrenergic α1A = biological target: T3, Adrenergic α1A (Rattus norvegicus, UniProt P43140); assay: Radioligand binding 203100 Adrenergic α1A
# T3 construct: 203100
# T3 sequence (P43140 1-466): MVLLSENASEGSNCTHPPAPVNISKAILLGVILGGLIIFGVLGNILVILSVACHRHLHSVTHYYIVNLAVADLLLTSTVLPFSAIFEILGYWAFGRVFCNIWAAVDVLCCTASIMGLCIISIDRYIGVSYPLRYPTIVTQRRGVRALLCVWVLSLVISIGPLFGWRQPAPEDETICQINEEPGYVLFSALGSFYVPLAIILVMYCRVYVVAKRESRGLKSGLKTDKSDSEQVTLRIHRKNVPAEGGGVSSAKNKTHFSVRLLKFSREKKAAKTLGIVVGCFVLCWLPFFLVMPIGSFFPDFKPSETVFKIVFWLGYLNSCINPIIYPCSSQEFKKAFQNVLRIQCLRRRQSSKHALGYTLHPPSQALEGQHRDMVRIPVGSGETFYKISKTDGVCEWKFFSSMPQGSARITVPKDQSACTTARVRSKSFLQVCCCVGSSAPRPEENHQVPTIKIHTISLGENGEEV
# Description: as §1
# Adrenergic α1B = biological target: T4, Adrenergic α1B (Rattus norvegicus, UniProt P15823); assay: Radioligand binding 203200 Adrenergic α1B
# T4 construct: 203200
# T4 sequence (P15823 1-515): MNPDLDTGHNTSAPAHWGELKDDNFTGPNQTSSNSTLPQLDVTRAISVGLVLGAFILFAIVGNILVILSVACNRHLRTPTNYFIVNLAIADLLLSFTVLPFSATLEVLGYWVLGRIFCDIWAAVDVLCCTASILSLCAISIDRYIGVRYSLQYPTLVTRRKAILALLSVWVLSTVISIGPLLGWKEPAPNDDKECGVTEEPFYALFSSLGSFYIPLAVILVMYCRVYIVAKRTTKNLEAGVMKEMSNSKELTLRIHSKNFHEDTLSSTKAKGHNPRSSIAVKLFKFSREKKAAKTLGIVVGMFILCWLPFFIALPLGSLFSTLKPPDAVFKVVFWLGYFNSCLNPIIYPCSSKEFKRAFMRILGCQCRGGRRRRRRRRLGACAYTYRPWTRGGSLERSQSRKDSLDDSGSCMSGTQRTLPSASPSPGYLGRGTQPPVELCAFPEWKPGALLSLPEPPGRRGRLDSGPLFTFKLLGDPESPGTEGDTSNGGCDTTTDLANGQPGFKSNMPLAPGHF
# Description: as §1
# 5-HT1A receptors = biological target: T5, 5-HT1A receptors (Homo sapiens, UniProt P08908); assay: In vitro assay of 5HT1A agonism (GTPγ35S, CHO membranes); type: biochemical; parameters: expressed in transfected cells; host or cells: CHO
# T5 sequence (P08908 1-422): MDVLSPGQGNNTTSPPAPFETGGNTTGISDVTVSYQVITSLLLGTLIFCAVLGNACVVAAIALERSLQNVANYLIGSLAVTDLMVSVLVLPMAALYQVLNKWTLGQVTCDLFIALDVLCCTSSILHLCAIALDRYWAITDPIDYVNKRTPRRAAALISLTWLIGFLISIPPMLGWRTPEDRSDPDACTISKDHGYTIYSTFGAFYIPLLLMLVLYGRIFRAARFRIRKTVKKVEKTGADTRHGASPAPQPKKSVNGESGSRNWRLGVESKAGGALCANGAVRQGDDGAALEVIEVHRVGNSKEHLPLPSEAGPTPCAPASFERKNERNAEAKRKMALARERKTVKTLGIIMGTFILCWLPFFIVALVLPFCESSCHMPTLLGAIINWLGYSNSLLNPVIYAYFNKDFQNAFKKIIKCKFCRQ
# Experimental: CHO membranes (10 μg protein) expressing human 5-HT1A receptors were incubated in 100 μl of 20 mM HEPES, pH 7.4 assay buffer containing 10 mM MgCl2, 100 mM NaCl, 0.1% BSA, 20 μM GDP, 200 μg WGA-PVT beads (Amersham RPNQ0001), 200 pM GTPγ^35S (Perkin Elmer NEG-030H). 11-piperazin-1-yldibenzo[b,f][1,4]thiazepine was incubated with the above at 11 different concentrations varying from 10 μM to 170 pM in Packard OptiPlates with shaking for 1.5 hours at room temperature. […] The plates were centrifuged to settle the beads and measured in a Parkard TopCount.
# Brain exposure in rats = type: in vivo; details: rat; for Kp at 1 h: brain
# Experimental: Brain exposure was measured in rats. For concentrations of 11-piperazin-1-yldibenzo[b,f][1,4]thiazepine in brain, rats were dosed either po or iv (n=3 per dose route). At one hour after compound administration blood and brain samples were obtained and then processed for analysis using HPLC/MS to measure concentrations of 11-piperazin-1-yldibenzo[b,f][ 1,4]thiazepine.
# T1 sequence (P14416 whole entry): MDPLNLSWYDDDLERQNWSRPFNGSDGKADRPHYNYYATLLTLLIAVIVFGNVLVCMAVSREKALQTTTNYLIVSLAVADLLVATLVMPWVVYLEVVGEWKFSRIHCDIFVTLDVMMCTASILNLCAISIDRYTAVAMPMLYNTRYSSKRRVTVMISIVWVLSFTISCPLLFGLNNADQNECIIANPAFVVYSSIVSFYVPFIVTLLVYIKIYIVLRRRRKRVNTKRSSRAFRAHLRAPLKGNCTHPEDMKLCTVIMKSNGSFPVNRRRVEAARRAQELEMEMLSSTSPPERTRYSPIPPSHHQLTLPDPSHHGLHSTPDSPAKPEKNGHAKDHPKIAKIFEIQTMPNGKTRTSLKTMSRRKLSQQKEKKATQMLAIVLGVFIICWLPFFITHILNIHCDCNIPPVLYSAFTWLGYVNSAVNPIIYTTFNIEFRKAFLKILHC
structure (smiles),measurement,setting,value
"c1ccc2c(c1)N=C(N1CCNCC1)c1ccccc1S2 [11-piperazin-1-yldibenzo[b,f][1,4]thiazepine]",receptor occupancy by PET,D2 receptors,occupies
same,IC50,Adrenergic α1D,377 ± 49 nM
same,n,Adrenergic α1D,0.984 ± 0.111
same,inhibition at 0.3 µM,Adrenergic α1D; 0.3 μM,53%
same,Ki,Adrenergic α1D; read-out: ki,185 ± 24 nM
same,Ki,"Adrenergic α1D; α1D, read-out: Affinity",185 nM
same,IC50,Adrenergic α1A,268 ± 12 nM
same,n,Adrenergic α1A,1.03 ± 0.089
same,inhibition at 0.3 µM,Adrenergic α1A; 0.3 μM,51%
same,Ki,Adrenergic α1A; read-out: ki,108 ± 5 nM
same,Ki,"Adrenergic α1A; α1A, read-out: Affinity",108 nM
same,n,Adrenergic α1B,1.1 ± 0.024
same,inhibition at 0.1 µM,Adrenergic α1B; 0.1 μM,50%
same,Ki,Adrenergic α1B; read-out: ki,75 ± 9 nM
same,Ki,"Adrenergic α1B; α1B, read-out: Affinity",75 nM
same,EC50,"5-HT1A receptors; GTPγ35S, CHO membranes",310 nM
same,Emax,5-HT1A receptors; read-out: maximum efficacy,66%
same,Kp at 1 h,"Brain exposure in rats; 30 umol/kg, one hour after 30 μmol/kg po, read-out: brain/plasma exposure ratio",3.4
same,Kp at 1 h,"Brain exposure in rats; after iv dosing, read-out: brain:plasma concentration ratio",4.6
same,concentration at 1 h,"Brain exposure in rats; plasma, 30 μmol/kg, heading: average concentration in plasma, one hour after 30 μmol/kg po",658 nM
